Here are results for two compounds from patent US20190119284A1, “ErbB Inhibitors and Uses Thereof” (The Regents of the University of California, priority 2016, published 2019).

For one assay, the target named is T1, HER2 kinase domain (Homo sapiens, UniProt P04626).
T1 construct: In vitro kinase assays with the HER2 kinase domain (SignalChem) were performed in triplicate; purchased SignalChem
Kind of assay: In vitro HER2 Kinase Assay. It is filed as biochemical. The settings on record: 50 μM ATP. The protocol:
In vitro HER2 Kinase Assay. In vitro kinase assays with the HER2 kinase domain (SignalChem) were performed in triplicate as follows. To 9 μL of a 2.5× solution of kinase and substrate in reaction buffer was added 3 μL of a 5× DMSO or inhibitor dilution in 10% DMSO:water. The inhibitor/kinase solution was incubated at room temperature for 10 minutes. The kinase assay was initiated by the addition of 3 μL of a 5× solution of ATP, and ran for 15 minutes. The final reaction conditions were 50 mM Tris (pH7.4), 5 mM MnCl2, 0.01% Tween-20, 2 mM DTT, 100 μM E4Y substrate (SignalChem), 15 nM HER2, 2% DMSO, 50 μM ATP, and 1 μCi γ^32P-ATP. After 15 minutes, 3 μL of each reaction was pipetted onto phosphocellulose sheets (P81, Whatman) and allowed to dry. The sheets were then washed 4×5 min with a solution of 0.5% phosphoric acid, dried, and exposed to a phosphor screen overnight. Phosphorimaging was conducted on a Typhoon 9500, image intensities were quantified in ImageQuant 5.2, normalized to the DMSO control and plotted in GraphPad Prism 6.

The next assay addresses T2, HER3 kinase domain (Homo sapiens, UniProt P21860).
T2 construct: added to 19 μL of the HER3 kinase domain in reaction buffer; made in house; host or cells: baculovirus/insect cells (inferred from the pFastBac plasmid)
Kind of assay: HER3 Thermofluor Assay. It is filed as binding. Conditions: 20 μM inhibitor. The procedure:
HER3 Thermofluor Assay. The HER3 gatekeeper mutation (T787M) was introduced into the HER3 tyrosine kinase domain in the pFastBac plasmid using standard protocols. Both wt and T787M HER3 were purified according to the previously published protocols. Thermofluor reactions were performed in duplicate and set up as follows. 1 μL of an inhibitor or DMSO dilution in 40% DMSO:water was added to 19 μL of the HER3 kinase domain in reaction buffer. The final reaction solution contained 100 mM MOPS, 200 mM NaCl, 5% glycerol, 5 mM MgCl2, 0.1 mM DTT, 5× SYPRO orange, 2 μM kinase, 2% DMSO and 20 μM inhibitor in the wells of a 96-well, low profile, white, PCR plate (USA scientific). The solution was pipetted up and down to mix, sealed with TempAssure clear PCR flat caps (USA Scientific), centrifuged at 500×g for 30 s, and heated in a Stratagene Mx3005P RT-PCR machine from 25° C. to 95° C. in 0.5° C. increments every 30 s after an initial incubation at 25° C. for 10 min. Fluorescence was measured at the end of each 30 s period with an excitation wavelength of 492 nm and an emission wavelength of 610 nm. […] Values after the well had reached a maximum signal were discarded and the signals were fit to the Boltzmann equation in Graphpad Prism 6. ΔTm was calculated as the difference in melting temperature between the compound treated kinase compared to the DMSO control.
On the technique in general: In DSF a fluorescence change marks the thermal transition of the protein.

Assay [1] concerns the target T3, HER3 intracellular domain (665-1323) (Homo sapiens, UniProt P21860).
T3 construct: The HER3 intracellular domain (665-1323) was concentrated on vesicles; made in house
As to the kind of experiment: HER3 intracellular domain autophosphorylation on vesicles. It is filed as biochemical. The settings on record: 1 μM HER3 intracellular domain, 200 μM ATP. The procedure: FIG. 11. […] 1 μM of The HER3 intracellular domain (665-1323) was concentrated on vesicles and incubated with 200 μM ATP in the presence of varying concentrations of compound 2. HER3 kinase activity inhibition was evaluated by western blotting for autophosphorylation of HER3.

A further assay concerns the target AKT1 (Homo sapiens, UniProt P31749). As to the kind of experiment: Nanosyn in vitro kinase profiling: AKT1. In kind it is biochemical. The procedure: This was confirmed by in vitro profiling against a panel of kinases, with compound 2 only showing potent inhibition of EGFR and Ab1 (Table 2).
In vitro Kinome Screen. In vitro profiling of compound 2 at 100 nM was conducted by Nanosyn.

In assay [2] the target is mutationally activated forms of EGFR (Homo sapiens, UniProt P00533, DEL746-750). As to the kind of experiment: EGFR phosphosite signaling in NCI-H1650 cells. It is filed as cell-based. Also on record: endogenous in cells; host or cells: NCI-H1650 (A2). Conditions: concentration giving near complete inhibition.
Assay [3] concerns NRG autocrine signaling in CHL-1 cells. As to the kind of experiment: NRG autocrine feedback signaling in CHL-1 cells (immunoblot). The settings on record: CHL-1 cells pre-treated with lapatinib 24 h, washed, drug 24 h; at 1 μM. In kind it is cell-based. The procedure: Similar results were obtained in FaDu cells, which are also dependent on NRG autocrine signaling (FIGS. 20A-20B).
Immunoblotting. Cells were grown in 6 well plates and treated according to the indicated conditions at which point the media was aspirated, cells were washed with 1 mL of cold PBS, which was then aspirated and the plates were frozen at −80° C. The frozen cells were thawed on the plates in a buffer containing 50 mM Tris pH 7.5, 150 mM NaCl, 1 mM EDTA, and 1% Triton X-100 supplemented with 1× phosphatase (PhoSTOP, Roche) and 1× protease (complete-mini tablets, Roche) inhibitors. Lysates were scraped, transferred to Eppendorf tubes, and cleared by centrifugation at 20,000×g for 20 min at 4° C. The clarified lysates were transferred to chilled, clean tubes, and normalized for protein concentration by Bradford (Bio-Rad). The normalized lysates were diluted with Laemmli loading buffer, and 10 μg of total protein was run on a 4-12% gradient gel (Invitrogen), which was then transferred to […] nitrocellulose (Bio-Rad) and analyzed using the indicated primary antibodies according to the manufacturer's recommendations. Primary antibodies were detected using IRDye secondary antibodies (Li-Cor) according to the manufacturer's recommendations and scanned on an Odyssey imager (Li-Cor). Scanned images were cropped and assembled in Adobe Illustrator 6.
(In general: A western blot detects proteins with antibodies after separation by electrophoresis.)

The target in assay [4] is T4, EGFR gatekeeper to methionine mutant in NCI-H1975 cells (Homo sapiens, UniProt P00533, L858R/T790M).
T4 construct: mutation of the EGFR gatekeeper to methionine in NCI-H1975 cells; endogenous in cells; host or cells: NCI-H1975
Kind of assay: EGFR signaling and proliferation in NCI-H1975 cells. It is filed as cell-based.

In a further assay the target is PI3K-ALPHA (Homo sapiens, UniProt P42336). As to the kind of experiment: Nanosyn in vitro kinase profiling: PI3K-ALPHA. It is filed as biochemical. The settings on record: compound at 1 μM.
Another assay concerns the target TYK2 (Homo sapiens, UniProt P29597). As to the kind of experiment: Nanosyn in vitro kinase profiling: TYK2. Conditions: compound at 1 μM. In kind it is biochemical.
The target of another assay is MAPK1 (Homo sapiens, UniProt P28482). As to the kind of experiment: Nanosyn in vitro kinase profiling: MAPK1. In kind it is biochemical. The settings on record: compound at 1 μM.

Chain of AKT1 (P31749 whole entry): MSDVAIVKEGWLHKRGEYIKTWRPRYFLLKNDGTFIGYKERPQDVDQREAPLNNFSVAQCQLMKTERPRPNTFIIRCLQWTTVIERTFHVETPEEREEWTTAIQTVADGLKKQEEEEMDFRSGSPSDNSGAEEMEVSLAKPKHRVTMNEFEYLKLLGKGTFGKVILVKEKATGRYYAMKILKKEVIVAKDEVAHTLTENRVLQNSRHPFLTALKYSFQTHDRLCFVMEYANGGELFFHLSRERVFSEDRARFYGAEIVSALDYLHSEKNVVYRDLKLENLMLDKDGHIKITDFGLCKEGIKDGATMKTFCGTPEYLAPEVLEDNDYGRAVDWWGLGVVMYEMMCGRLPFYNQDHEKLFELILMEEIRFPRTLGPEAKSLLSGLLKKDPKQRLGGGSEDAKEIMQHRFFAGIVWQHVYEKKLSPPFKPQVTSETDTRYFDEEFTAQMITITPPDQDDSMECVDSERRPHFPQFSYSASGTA
T4 sequence (P00533 25-1210 T790M/L858R): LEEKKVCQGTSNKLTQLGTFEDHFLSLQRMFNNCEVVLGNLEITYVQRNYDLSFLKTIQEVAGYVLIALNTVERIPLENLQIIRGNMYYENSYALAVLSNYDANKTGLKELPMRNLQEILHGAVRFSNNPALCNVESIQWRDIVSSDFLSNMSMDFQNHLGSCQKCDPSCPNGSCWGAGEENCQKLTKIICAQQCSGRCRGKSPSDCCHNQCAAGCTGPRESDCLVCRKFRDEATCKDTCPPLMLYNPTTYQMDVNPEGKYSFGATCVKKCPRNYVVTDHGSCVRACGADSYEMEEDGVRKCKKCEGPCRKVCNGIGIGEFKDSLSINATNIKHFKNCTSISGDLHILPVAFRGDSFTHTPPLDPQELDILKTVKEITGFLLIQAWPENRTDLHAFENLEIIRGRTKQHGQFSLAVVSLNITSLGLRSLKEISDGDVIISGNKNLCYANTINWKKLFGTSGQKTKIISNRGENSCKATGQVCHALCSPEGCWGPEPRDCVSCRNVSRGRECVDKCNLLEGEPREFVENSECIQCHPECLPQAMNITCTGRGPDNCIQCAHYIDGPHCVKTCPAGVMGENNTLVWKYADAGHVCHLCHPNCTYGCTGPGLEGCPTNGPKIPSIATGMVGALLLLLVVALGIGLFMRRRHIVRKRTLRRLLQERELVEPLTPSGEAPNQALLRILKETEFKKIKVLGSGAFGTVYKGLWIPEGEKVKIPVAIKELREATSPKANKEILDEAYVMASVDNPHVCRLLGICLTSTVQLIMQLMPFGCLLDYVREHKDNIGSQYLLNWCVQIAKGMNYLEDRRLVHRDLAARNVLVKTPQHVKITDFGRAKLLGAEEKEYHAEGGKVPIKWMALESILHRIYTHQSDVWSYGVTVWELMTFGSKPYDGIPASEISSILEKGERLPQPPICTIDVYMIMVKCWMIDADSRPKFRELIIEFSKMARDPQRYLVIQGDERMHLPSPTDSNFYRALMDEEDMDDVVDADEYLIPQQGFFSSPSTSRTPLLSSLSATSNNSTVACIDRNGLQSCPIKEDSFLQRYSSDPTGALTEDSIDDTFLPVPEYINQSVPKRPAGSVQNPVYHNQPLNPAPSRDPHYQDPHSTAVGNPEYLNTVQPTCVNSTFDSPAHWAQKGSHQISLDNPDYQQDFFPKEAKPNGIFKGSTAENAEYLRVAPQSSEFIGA
T1 sequence (P04626 720-987 limits assumed): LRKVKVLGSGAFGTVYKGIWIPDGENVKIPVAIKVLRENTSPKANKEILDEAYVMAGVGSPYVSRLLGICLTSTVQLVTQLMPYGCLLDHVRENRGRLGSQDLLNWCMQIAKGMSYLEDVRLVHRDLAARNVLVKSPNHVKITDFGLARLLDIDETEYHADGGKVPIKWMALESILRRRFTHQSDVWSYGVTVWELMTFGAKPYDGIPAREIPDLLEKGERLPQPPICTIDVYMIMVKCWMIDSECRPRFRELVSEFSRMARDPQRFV
T3 sequence (P21860 684-1342): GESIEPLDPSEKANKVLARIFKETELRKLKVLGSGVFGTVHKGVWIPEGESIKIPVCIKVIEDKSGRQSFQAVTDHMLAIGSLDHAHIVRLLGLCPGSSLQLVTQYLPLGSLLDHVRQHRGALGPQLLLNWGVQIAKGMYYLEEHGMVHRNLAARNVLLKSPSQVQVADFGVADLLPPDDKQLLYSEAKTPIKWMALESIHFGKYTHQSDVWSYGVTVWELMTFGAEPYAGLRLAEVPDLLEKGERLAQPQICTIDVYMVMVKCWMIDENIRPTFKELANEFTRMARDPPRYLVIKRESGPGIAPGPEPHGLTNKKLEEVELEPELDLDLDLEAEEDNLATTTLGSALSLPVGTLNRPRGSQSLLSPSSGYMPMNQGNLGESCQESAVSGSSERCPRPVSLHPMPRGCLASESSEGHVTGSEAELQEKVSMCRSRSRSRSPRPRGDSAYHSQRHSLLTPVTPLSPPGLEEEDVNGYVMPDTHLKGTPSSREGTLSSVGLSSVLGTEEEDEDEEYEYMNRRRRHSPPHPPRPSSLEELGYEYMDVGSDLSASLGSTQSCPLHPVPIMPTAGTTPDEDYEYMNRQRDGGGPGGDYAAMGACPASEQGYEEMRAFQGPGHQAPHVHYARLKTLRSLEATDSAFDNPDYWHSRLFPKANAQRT
Chain of TYK2 (P29597 whole entry, species assumed): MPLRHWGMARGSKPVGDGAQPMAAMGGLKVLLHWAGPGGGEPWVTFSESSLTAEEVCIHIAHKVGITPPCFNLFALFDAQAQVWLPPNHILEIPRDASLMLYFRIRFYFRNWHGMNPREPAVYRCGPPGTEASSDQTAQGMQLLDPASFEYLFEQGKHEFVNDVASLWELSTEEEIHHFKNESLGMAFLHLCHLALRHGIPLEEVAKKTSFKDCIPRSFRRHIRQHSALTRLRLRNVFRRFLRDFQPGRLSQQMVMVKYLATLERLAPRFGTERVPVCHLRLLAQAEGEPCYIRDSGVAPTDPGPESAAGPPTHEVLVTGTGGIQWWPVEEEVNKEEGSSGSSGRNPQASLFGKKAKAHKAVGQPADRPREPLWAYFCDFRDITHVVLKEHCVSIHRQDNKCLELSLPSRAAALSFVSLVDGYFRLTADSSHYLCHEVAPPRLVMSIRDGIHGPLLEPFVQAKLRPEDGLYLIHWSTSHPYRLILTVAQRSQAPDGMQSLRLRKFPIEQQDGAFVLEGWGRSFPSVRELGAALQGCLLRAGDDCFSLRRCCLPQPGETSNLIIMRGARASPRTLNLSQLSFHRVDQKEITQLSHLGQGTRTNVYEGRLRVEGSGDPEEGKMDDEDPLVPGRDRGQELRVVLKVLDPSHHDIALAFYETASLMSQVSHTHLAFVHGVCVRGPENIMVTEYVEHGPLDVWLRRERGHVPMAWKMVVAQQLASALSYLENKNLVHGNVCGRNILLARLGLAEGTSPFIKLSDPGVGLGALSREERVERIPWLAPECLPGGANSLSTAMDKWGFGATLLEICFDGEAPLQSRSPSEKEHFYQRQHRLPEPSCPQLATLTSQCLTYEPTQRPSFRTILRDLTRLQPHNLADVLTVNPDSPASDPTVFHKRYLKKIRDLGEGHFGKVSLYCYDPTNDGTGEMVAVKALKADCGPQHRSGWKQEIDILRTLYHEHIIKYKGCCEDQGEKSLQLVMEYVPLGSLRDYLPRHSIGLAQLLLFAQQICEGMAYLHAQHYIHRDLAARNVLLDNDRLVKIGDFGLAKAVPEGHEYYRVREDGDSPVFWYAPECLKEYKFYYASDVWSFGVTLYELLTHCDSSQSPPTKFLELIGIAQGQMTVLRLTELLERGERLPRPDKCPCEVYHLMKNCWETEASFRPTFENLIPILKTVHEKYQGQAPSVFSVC
Chain of mutationally activated forms of EGFR (P00533 with tags, fused parts or gaps DEL746-750): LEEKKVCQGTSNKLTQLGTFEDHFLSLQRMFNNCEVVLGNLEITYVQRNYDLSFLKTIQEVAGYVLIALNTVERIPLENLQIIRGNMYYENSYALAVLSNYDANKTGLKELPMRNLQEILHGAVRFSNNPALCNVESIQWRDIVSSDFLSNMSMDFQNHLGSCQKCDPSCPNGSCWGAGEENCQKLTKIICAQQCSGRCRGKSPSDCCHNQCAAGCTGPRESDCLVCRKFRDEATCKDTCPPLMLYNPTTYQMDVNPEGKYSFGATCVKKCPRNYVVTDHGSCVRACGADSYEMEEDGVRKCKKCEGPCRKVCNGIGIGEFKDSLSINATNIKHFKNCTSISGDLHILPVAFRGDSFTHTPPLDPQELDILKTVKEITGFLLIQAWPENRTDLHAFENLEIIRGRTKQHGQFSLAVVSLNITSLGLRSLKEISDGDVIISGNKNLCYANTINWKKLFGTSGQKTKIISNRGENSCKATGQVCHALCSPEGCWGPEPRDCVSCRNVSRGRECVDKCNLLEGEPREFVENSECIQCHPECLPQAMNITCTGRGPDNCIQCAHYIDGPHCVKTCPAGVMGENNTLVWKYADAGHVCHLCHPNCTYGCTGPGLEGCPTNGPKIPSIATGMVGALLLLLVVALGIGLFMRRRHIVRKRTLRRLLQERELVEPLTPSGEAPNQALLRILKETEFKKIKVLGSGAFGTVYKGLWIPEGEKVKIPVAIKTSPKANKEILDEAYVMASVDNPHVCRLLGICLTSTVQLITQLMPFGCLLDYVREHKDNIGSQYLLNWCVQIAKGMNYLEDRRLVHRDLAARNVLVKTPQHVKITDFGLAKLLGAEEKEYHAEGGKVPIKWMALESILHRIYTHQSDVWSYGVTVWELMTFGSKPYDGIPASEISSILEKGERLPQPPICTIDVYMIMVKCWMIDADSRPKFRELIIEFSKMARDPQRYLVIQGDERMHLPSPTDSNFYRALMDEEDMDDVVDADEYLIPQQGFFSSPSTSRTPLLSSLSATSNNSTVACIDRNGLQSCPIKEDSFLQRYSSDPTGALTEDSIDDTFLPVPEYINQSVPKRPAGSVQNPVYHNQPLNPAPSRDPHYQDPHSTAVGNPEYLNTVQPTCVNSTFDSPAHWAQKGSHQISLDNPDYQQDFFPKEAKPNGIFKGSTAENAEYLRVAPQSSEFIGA

On to `COc1ccc(-c2ccco2)cc1Nc1ncnc2[nH]nc(-c3ccco3)c12` [compound 2, 3-(furan-2-yl)-N-(5-(furan-2-yl)-2-methoxyphenyl)-1H-pyrazolo[3,4-d]pyrimidin-4-amine], for which the “potency against HER2 in vitro” value at HER2 kinase domain is given as “equipotent to lapatinib”. The “binding to HER3” value at HER3 kinase domain is given as “capable of binding to HER3”. Moreover, the “binding to HER3 / inhibition of HER3 autophosphorylation” value in [1] is “binds to the active site of HER3”. Besides, the inhibition – broadly, the drop in the measured response relative to a control, in per cent – at 0.1 µM against AKT1 (compound at 100 nM) stood at 14.3%. Also, the inhibition at 1 µM at AKT1 (compound at 1 μM) is 33%.
Turning to `COc1ccc(-c2ccoc2)cc1Nc1ncnc2[nH]cc(-c3cc[nH]n3)c12` [compound 3, N-(5-(furan-3-yl)-2-methoxyphenyl)-5-(1H-pyrazol-3-yl)-7H-pyrrolo[2,3-d]pyrimidin-4-amine], the “near complete inhibition of multiple phosphosites on EGFR” value in [2] is recorded as “less than 10 nM”. Further, the “inhibition of feedback-released signaling” value in assay [3] is recorded as “complete inhibition”. The “p-845 site inhibition at concentrations” value in assay [4] (EGFR gatekeeper methionine) is on record as “less than 1 μM”. For the same compound, in [4] (signaling and proliferation), the “effect of EGFR gatekeeper methionine mutation on inhibition” value is “caused a shift in the ability of compound 3 to inhibit both signaling and proliferation”. Also, the inhibition at 1 µM at PI3K-ALPHA was 6%; at TYK2, 51%; against MAPK1, -2%.
